Results on 17 compounds are retold here after patent US8530493B2, “Indolopyridines as Eg5 kinesin modulators” (4SC AG, priority 2006, dated 2013).

A value given as a limit tells only on which side of the number the result lay.

This assay concerns RKO p21 uninduced (proliferating) colon adenocarcinoma cells. The experiment in a line: Alamar Blue cell viability assay, RKO p21 uninduced (proliferating). The class given is cell-based. The following applies: Homo sapiens, Table B3, anti-proliferative/cytotoxic activity, 72 hours, read-out: −log EC50 RKO p21 uninduced (proliferating) (converted). An outline of the steps:
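RKO p21 or p27 subclones grown without Ponasterone A, i.e. proliferating, exposed 24 h after seeding to semi-log compound dilutions in DMEM/10% FCS (1% DMSO controls) for 72 h at 37° C. Alamar Blue fluorescence (544/590 nm) read relative to untreated cells; EC50 from dose-response curves, given as −log EC50 (mol/l).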
In general terms: Resazurin is reduced to fluorescent resorufin, in cell work by metabolically active cells.
As for `C=CCNCCN1C(=O)N2[C@H](c3cccc(O)c3)c3[nH]c4ccc(OCC)cc4c3C[C@@]2(C)C1=O` (racemic) [Example 157, (3aSR,10RS)-2-(2-Allylamino-ethyl)-6-ethoxy-10-(3-hydroxy-phenyl)-3a-methyl-3a,4,9,10-tetrahydro-2,9,10a-triaza-cyclopenta[b]fluorene-1,3-dione], the EC50 (usually the concentration giving half of the maximal effect) is at most 39.8 nM.
The result for `COc1cc2c3c([nH]c2cc1F)[C@@H](c1cccc(O)c1)N1C(=O)N(CCCN(C)CCO)C(=O)[C@]1(C)C3` (racemic) [Example 312, (3aSR,10RS)-7-Fluoro-2-{3-[(2-hydroxy-ethyl)-methyl-amino]-propyl}-10-(3-hydroyx-phenyl)-6-methoxy-3a-methyl-3a,4,9,10-tetrahydro-2,9,10a-triaza-cyclopenta[b]fluorene-1,3-dione] reads 39.8 to 251 nM; that for `CCOc1ccc2[nH]c3c(c2c1)C[C@@]1(C)C(=O)N(CCCN2CCOCC2)C(=O)N1[C@@H]3c1cccc(O)c1` (racemic) [Example 207, (3aSR,10RS)-6-Ethoxy-10-(3-hydroxy-phenyl)-3a-methyl-2-(3-morpholin-4-yl-propyl)-3a,4,9,10-tetrahydro-2,9,10a-triaza-cyclopenta[b]fluorene-1,3-dione], 39.8 to 251 nM; that for `CN(C)CCCN1C(=O)N2[C@H](c3cccc(O)c3)c3[nH]c4ccc(OC(F)F)cc4c3C[C@@]2(C)C1=O` (racemic) [Example 314, (3aSR,10RS)-6-(1,1-Difluoro-methoxy)-2-(3-dimethylamino-propyl)-10-(3-hydroxy-phenyl)-3a-methyl-3a,4,9,10-tetrahydro-2,9,10a-triaza-cyclopenta[b]fluorene-1,3-dione], at most 39.8 nM.
As for `C[C@@]12Cc3c([nH]c4ccc(OC(F)F)cc34)[C@@H](c3cccc(O)c3)N1C(=O)N(CCCNCC1CC1)C2=O` (racemic) [Example 200, (3aSR,10RS)-2-[3-(Cyclopropylmethyl-amino)-propyl]-6-(1,1-difluoro-methoxy)-10-(3-hydroxy-phenyl)-3a-methyl-3a,4,9,10-tetrahydro-2,9,10a-triaza-cyclopenta[b]fluorene-1,3-dione], the figure is 39.8 to 251 nM; as for `COc1ccc2[nH]c3c(c2c1)C[C@@]1(C)C(=O)N(CCCN(C)C)C(=O)N1[C@@H]3c1cccc(O)c1` [Example 540, (3aS,10R)-2-(3-Dimethylamino-propyl)-10-(3-hydroxy-phenyl)-6-methoxy-3a-methyl-3a,4,9,10-tetrahydro-2,9,10a-triaza-cyclopenta[b]fluorene-1,3-dione], at most 39.8 nM.
The result for `CC(C)N(C)CCN1C(=O)N2[C@H](c3cccc(O)c3)c3[nH]c4ccc(OC(F)F)cc4c3C[C@@]2(C)C1=O` (racemic) [Example 278, (3aSR,10RS)-6-(1,1-Difluoro-methoxy)-10-(3-hydroxy-phenyl)-2-[2-(isopropyl-methyl-amino)-ethyl]-3a-methyl-3a,4,9,10-tetrahydro-2,9,10a-triaza-cyclopenta[b]fluorene-1,3-dione] reads at most 39.8 nM; that for `CCNCCN1C(=O)N2[C@H](c3cccc(O)c3)c3[nH]c4ccc(OC(F)F)cc4c3C[C@@]2(C)C1=O` (racemic) [Example 284, (3aSR,10RS)-6-(1,1-Difluoro-methoxy)-2-(2-ethylamino-ethyl)-10-(3-hydroxy-phenyl)-3a-methyl-3a,4,9,10-tetrahydro-2,9,10a-triaza-cyclopenta[b]fluorene-1,3-dione], at most 39.8 nM; that for `C=CCNCCN1C(=O)N2[C@H](c3cccc(O)c3)c3[nH]c4cc(F)c(Cl)cc4c3C[C@@]2(C)C1=O` (racemic) [Example 346, (3aSR,10RS)-2-(2-Allylamino-ethyl)-6-chloro-7-fluoro-10-(3-hydroxy-phenyl)-3a-methyl-3a,4,9,10-tetrahydro-2,9,10a-triaza-cyclopenta[b]fluorene-1,3-dione], at most 39.8 nM.
On to `CCOc1ccc2[nH]c3c(c2c1)C[C@@]1(C)C(=O)N(CCNCCOC)C(=O)N1[C@@H]3c1cccc(O)c1` (racemic) [Example 160, (3aSR,10RS)-6-Ethoxy-10-(3-hydroxy-phenyl)-2-[2-(2-methoxy-ethylamino)-ethyl]-3a-methyl-3a,4,9,10-tetrahydro-2,9,10a-triaza-cyclopenta[b]fluorene-1,3-dione], for which the EC50 was 39.8 to 251 nM.
As for `CN(C)CCCN1C(=O)N2[C@H](c3cccc(O)c3)c3[nH]c4ccc(Br)cc4c3C[C@@]2(C)C1=O` (racemic) [Example 230, (3aSR,10RS)-6-Bromo-2-(3-dimethylamino-propyl)-10-(3-hydroyx-phenyl)-3a-methyl-3a,4,9,10-tetrahydro-2,9,10a-triaza-cyclopenta[b]fluorene-1,3-dione], the figure is at most 39.8 nM; as for `CCN(CCOC)CCN1C(=O)N2[C@H](c3cccc(O)c3)c3[nH]c4ccc(Br)cc4c3C[C@@]2(C)C1=O` (racemic) [Example 380, (3aSR,10RS)-6-Bromo-2-{2-[ethyl-(2-methoxy-ethyl)-amino]-ethyl}-10-(3-hydroxy-phenyl)-3a-methyl-3a,4,9,10-tetrahydro-2,9,10a-triaza-cyclopenta[b]fluorene-1,3-dione], 39.8 to 251 nM; as for `C=CCNCCN1C(=O)N2[C@H](c3cccc(O)c3)c3[nH]c4cc(F)c(OC)cc4c3C[C@@]2(C)C1=O` (racemic) [Example 254, (3aSR,10RS)-2-(2-Allylamino-ethyl)-7-fluoro-10-(3-hydroxy-phenyl)-6-methoxy-3a-methyl-3a,4,9,10-tetrahydro-2,9,10a-triaza-cyclopenta[b]fluorene-1,3-dione], 39.8 to 251 nM.
Consider `CCN(C)CCCN1C(=O)N2[C@H](c3cccc(O)c3)c3[nH]c4ccc(Br)cc4c3C[C@@]2(C)C1=O` (racemic) [Example 216, (3aSR,10RS)-6-Bromo-2-[3-(ethyl-methyl-amino)-propyl]-10-(3-hydroxy-phenyl)-3a-methyl-3a,4,9,10-tetrahydro-2,9,10a-triaza-cyclopenta[b]fluorene-1,3-dione], for which the EC50 is at most 39.8 nM.
The result for `CN(CCO)CCN1C(=O)N2[C@H](c3cccc(O)c3)c3[nH]c4cc(F)c(Cl)cc4c3C[C@@]2(C)C1=O` (racemic) [Example 348, (3aSR,10RS)-6-Chloro-7-fluoro-2-{2-[(2-hydroxy-ethyl)-methyl-amino]-ethyl}-10-(3-hydroxy-phenyl)-3a-methyl-3a,4,9,10-tetrahydro-2,9,10a-triaza-cyclopenta[b]fluorene-1,3-dione] reads 39.8 to 251 nM.
As for `CCNCCCN1C(=O)N2[C@H](c3cccc(O)c3)c3[nH]c4ccc(Br)cc4c3C[C@@]2(C)C1=O` (racemic) [Example 212, (3aSR,10RS)-6-Bromo-2-(3-ethylamino-propyl)-10-(3-hydroxy-phenyl)-3a-methyl-3a,4,9,10-tetrahydro-2,9,10a-triaza-cyclopenta[b]fluorene-1,3-dione], the figure is at most 39.8 nM.
Turning to `CN(CCO)CCCN1C(=O)N2[C@H](c3cccc(O)c3)c3[nH]c4ccc(Br)cc4c3C[C@@]2(C)C1=O` (racemic) [Example 370, (3aSR,10RS)-6-Bromo-2-{3-[(2-hydroxy-ethyl)-methyl-amino]-propyl}-10-(3-hydroxy-phenyl)-3a-methyl-3a,4,9,10-tetrahydro-2,9,10a-triaza-cyclopenta[b]fluorene-1,3-dione], the EC50 is at most 39.8 nM.
